Reference: ChEMBL document CHEMBL6121019, “Design, synthesis and biological evaluation of bisnoralcohol derivatives as novel IRF4 inhibitors for the treatment of multiple myeloma” (Eur J Med Chem, 2025)
Calls of active or inactive are those of the source. The calls are words filed in the database; no cut-off is given here.

How the values were obtained:
[1] = biological target: T1, Interferon regulatory factor 4 (Homo sapiens) (UniProt Q15306); assay: Induction of thermal stabilization of IRF4 in human NCI-H929 cells at 42 to 42.3 degree C by […] method; type: cell-based
T1 sequence (whole entry): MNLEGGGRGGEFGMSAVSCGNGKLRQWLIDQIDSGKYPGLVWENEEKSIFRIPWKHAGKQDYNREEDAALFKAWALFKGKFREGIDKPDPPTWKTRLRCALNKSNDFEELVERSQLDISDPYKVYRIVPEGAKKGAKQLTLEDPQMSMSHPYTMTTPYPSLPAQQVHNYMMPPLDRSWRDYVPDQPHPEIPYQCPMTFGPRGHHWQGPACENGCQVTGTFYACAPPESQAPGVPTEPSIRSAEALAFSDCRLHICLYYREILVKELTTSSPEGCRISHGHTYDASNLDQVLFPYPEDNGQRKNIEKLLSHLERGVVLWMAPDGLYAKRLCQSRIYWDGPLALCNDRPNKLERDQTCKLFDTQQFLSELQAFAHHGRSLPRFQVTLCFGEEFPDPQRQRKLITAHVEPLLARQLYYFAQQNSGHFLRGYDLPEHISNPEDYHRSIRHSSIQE

[2] = biological target: T2, Interferon regulatory factor 3 (Homo sapiens) (UniProt Q14653); assay: Induction of thermal stabilization of IRF3 in human NCI-H929 cells at 42 to 42.3 degree C by […] method; type: cell-based
T2 sequence (whole entry): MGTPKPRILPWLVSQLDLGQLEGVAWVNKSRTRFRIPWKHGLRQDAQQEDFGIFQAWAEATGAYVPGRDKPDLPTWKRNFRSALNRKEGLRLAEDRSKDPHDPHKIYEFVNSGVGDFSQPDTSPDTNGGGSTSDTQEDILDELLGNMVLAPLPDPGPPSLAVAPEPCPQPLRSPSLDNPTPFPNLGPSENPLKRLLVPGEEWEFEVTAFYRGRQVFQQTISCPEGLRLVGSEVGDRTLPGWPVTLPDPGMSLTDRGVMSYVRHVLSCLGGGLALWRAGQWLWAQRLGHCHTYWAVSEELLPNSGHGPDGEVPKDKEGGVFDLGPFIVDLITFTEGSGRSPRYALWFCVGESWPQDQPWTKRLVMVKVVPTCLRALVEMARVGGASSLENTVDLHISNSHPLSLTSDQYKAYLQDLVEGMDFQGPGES

[3] = test system: MM.1R; assay: Antiproliferative activity against human MM1.R cells with siRNA mediated IRF4#2 knockdown at 0.125 to 1 uM measured upto 5 days by MTS assay; type: functional, cell-based; conditions: dose 0.125-1 µM, time <= 5.0 day
[4] = test system: RPMI-8226; assay: Antiproliferative activity against human RPMI-8226 cells overexpressing IRF4 at 0.125 to 1 uM measured after 72 hrs by MTS assay; type: functional, cell-based; conditions: dose 0.125-1 µM
[5] = test system: HaCaT; assay: Effect on IRF4 expression in human HaCaT cells by Western blot analysis; type: functional, cell-based
[6] = test system: NCI-H929; assay: Downregulation of E2F5 expression in human NCI-H929 cells measured after 24 hrs by qRT-PCR analysis; type: functional, cell-based; conditions: dose 0.125-1 µM
[7] = test system: MM.1R; assay: Downregulation of HK2 expression in human MM1.R cells measured after 24 hrs by qRT-PCR analysis; type: functional, cell-based; conditions: dose 0.125-1 µM
[8] = test system: MM.1R; assay: Downregulation of Blimp1 expression in human MM1.R cells measured after 24 hrs by qRT-PCR analysis; type: functional, cell-based; conditions: dose 0.125-1 µM
[9] = test system: MM.1R; assay: Inhibition of ERK phosphorylation level in human MM1.R cells at 0.1 to 1 uM by Western blot analysis; type: functional, cell-based; conditions: dose 0.1-1 µM
[10] = test system: NCI-H929; assay: Inhibition of ERK phosphorylation level in human NCI-H929 cells at 0.1 to 1 uM by Western blot analysis; type: functional, cell-based; conditions: dose 0.1-1 µM
[11] = test system: NCI-H929; assay: Induction of cell cycle arrest in human NCI-H929 cells assessed as accumulation of cells at G1 phase at 0.25 uM measured after 24 hrs by flow cytometry analysis (reference value: 54.12%); type: functional
[12] = test system: NCI-H929; assay: Induction of cell cycle arrest in human NCI-H929 cells assessed as accumulation of cells at G1 phase at 0..5 uM measured after 24 hrs by flow cytometry analysis (reference value: 54.12%); type: functional
[13] = test system: NCI-H929; assay: Induction of cell cycle arrest in human NCI-H929 cells assessed as accumulation of cells at S phase at 0.25 uM measured after 24 hrs by flow cytometry analysis (reference value: 32.14%); type: functional
[14] = test system: NCI-H929; assay: Induction of cell cycle arrest in human NCI-H929 cells assessed as accumulation of cells at G2 phase at 0.125 uM measured after 24 hrs by flow cytometry analysis (reference value: 13.37%); type: functional
[15] = test system: NCI-H929; assay: Induction of cell cycle arrest in human NCI-H929 cells assessed as accumulation of cells at G2 phase at 0.5 uM measured after 24 hrs by flow cytometry analysis (reference value: 13.37%); type: functional
[16] = test system: NCI-H929; assay: Induction of cell cycle arrest in human NCI-H929 cells assessed as inhibition of CDC2 protein expression at 0.1 to 1 uM; type: functional, cell-based; conditions: dose 0.1-1 µM
[17] = test system: NCI-H929; assay: Induction of cell cycle arrest in human NCI-H929 cells assessed as inhibition of cyclin D1 protein expression at 0.1 to 1 uM; type: functional, cell-based; conditions: dose 0.1-1 µM
[18] = test system: NCI-H929; assay: Induction of cell cycle arrest in human NCI-H929 cells assessed as inhibition of cyclin E1 protein expression at 0.1 to 1 uM; type: functional, cell-based; conditions: dose 0.1-1 µM
[19] = Toxicity in Balb/C nude mouse assessed as side effects at 12.5 to 25 mg/kg administered once daily and measured every three days for 34 days by H and E staining based analysis; type: organism-based; conditions: in vivo, 816 h, dose 12.5-25 mg/kg, time 34 day
[20] = test system: NCI-H929; assay: Antitumor activity against human NCI-H929 cells xenografted in Balb/C nude mouse model assessed as inhibition of Akt phosphorylation level at 25 mg/kg by Western blot analysis; type: functional, organism-based
[21] = test system: NCI-H929; assay: Antitumor activity against human NCI-H929 cells xenografted in Balb/C nude mouse model assessed as increase in gammaH2AX expression at 25 mg/kg by Western blot analysis; type: functional, organism-based
[22] = test system: RPMI-8226; assay: Antiproliferative activity against human RPMI-8226 cells assessed as inhibition of cell viability measured after 72 hrs by MTS assay; type: functional, cell-based; conditions: RPMI-8226, 72 h
[23] = Antiproliferative activity against human HaCaT cells assessed as inhibition of cell viability measured after 72 hrs by MTS assay; type: toxicity, cell-based
[24] = Selectivity ratio IC50 for human RPMI-8226 cells to IC50 for human MM1.R cells; type: toxicity
[25] = Tmax in ICR mouse plasma at 1.0 mg/kg, iv; type: ADME, organism-based
[26] = AUC (0 to t) in ICR mouse plasma at 1.0 mg/kg, iv; type: ADME, organism-based
[27] = Apparent volume of distribution in ICR mouse plasma at 1.0 mg/kg, iv; type: ADME, organism-based; conditions: read-out: Vz
[28] = Cmax in ICR mouse plasma at 10 mg/kg, po; type: ADME, organism-based
[29] = AUC (0 to t) in ICR mouse plasma at 10 mg/kg, po; type: ADME, organism-based
[30] = Terminal elimination half life in ICR mouse plasma at 10 mg/kg, po; type: ADME, organism-based; conditions: read-out: beta t1/2 (converted)

Activity [1]: Active | Activity [2]: inactive | IC50 [22]: 1190 nM | Tmax [25]: 4.8 min | AUC(0-t) [26]: 81 ng·h/mL | Vd [27]: 20.8 L/kg | Cmax [28]: 82 ng/mL | AUC(0-t) [29]: 285 ng·h/mL | half-life [30]: 403 min
SMILES: COc1ccc(NC(=O)[C@@H](C)[C@H]2CC[C@H]3[C@@H]4C(=O)C=C5C(C)(C)C(=O)C(C#N)=C[C@]5(C)[C@H]4CC[C@]23C)cc1
Activity [3]: Active | Activity [4]: Active | Activity [5]: inactive | Activity [6]: Active | Activity [7]: Active | Activity [8]: Active | inhibition [9]: Active | inhibition [10]: Active | Activity [11]: 60.31% | Activity [12]: 64.61% | Activity [13]: 25.49% | Activity [14]: 11.45% | Activity [15]: 10.56% | Activity [16]: Active | Activity [17]: Active | Activity [18]: Active | Activity [19]: Non-toxic | Activity [20]: Active | Activity [21]: Active | IC50 at 72 h [23]: > 100 µM | Ratio IC50 [24]: 10.8
